Laboratory results published in ChEMBL document CHEMBL3044651, “Synthesis, fungicidal activity, and structure-activity relationship of spiro-compounds containing macrolactam (macrolactone) and thiadiazoline rings” (J Agric Food Chem, 2010).
Values after ≈ are worked out from the molar mass of the structure shown.

Assays:
Type in all cases: functional, organism-based
Phomopsis asparagi = test: Antifungal activity against Phomopsis asparagi by mycelium growth rate test
Pyricularia oryzae = test: Antifungal activity against Magnaporthe oryzae by mycelium growth rate test
Botrytis cinerea = test: Antifungal activity against Botryotinia fuckeliana by mycelium growth rate test
Sclerotinia sclerotiorum = test: Antifungal activity against Sclerotinia sclerotiorum by mycelium growth rate test
Rhizoctonia solani = test: Antifungal activity against Rhizoctonia solani Kuhn by mycelium growth rate test

O=C1CCCCCCCCCCC2(CCCN1)N=N/C(=N/c1ccccc1)S2 (stereo not given)
EC50 (Phomopsis asparagi): 14.2 µg/mL (≈ 35.4 µM) | EC50 (Pyricularia oryzae): 41.5 µg/mL (≈ 104 µM) | EC50 (Botrytis cinerea): 5.01 µg/mL (≈ 12.5 µM) | EC50 (Sclerotinia sclerotiorum): 9.92 µg/mL (≈ 24.8 µM) | EC50 (Rhizoctonia solani): 42.1 µg/mL (≈ 105 µM)

Cc1ccccc1/N=C1/N=NC2(CCCCCCCCCCC(=O)NCCC2)S1 (stereo not given)
EC50 (Phomopsis asparagi): 73.8 µg/mL (≈ 178 µM) | EC50 (Pyricularia oryzae): 78.4 µg/mL (≈ 189 µM) | EC50 (Botrytis cinerea): 4.21 µg/mL (≈ 10.2 µM) | EC50 (Sclerotinia sclerotiorum): 375 µg/mL (≈ 905 µM) | EC50 (Rhizoctonia solani): 125 µg/mL (≈ 301 µM)

Cc1cccc(/N=C2/N=NC3(CCCCCCCCCCC(=O)NCCC3)S2)c1 (stereo not given)
EC50 (Phomopsis asparagi): 9.67 µg/mL (≈ 23.3 µM) | EC50 (Pyricularia oryzae): 63.2 µg/mL (≈ 152 µM) | EC50 (Botrytis cinerea): 6.42 µg/mL (≈ 15.5 µM) | EC50 (Sclerotinia sclerotiorum): 4.42 µg/mL (≈ 10.7 µM) | EC50 (Rhizoctonia solani): 30.7 µg/mL (≈ 74.1 µM)

Cc1ccc(/N=C2/N=NC3(CCCCCCCCCCC(=O)NCCC3)S2)cc1 (stereo not given)
EC50 (Phomopsis asparagi): 14.5 µg/mL (≈ 35 µM) | EC50 (Pyricularia oryzae): 139 µg/mL (≈ 335 µM) | EC50 (Botrytis cinerea): 25.1 µg/mL (≈ 60.5 µM) | EC50 (Sclerotinia sclerotiorum): 34.1 µg/mL (≈ 82.2 µM) | EC50 (Rhizoctonia solani): 71.8 µg/mL (≈ 173 µM)

O=C1CCCCCCCCCCC2(CCCN1)N=N/C(=N/c1ccccc1Cl)S2 (stereo not given)
EC50 (Phomopsis asparagi): 24.5 µg/mL (≈ 56.3 µM) | EC50 (Pyricularia oryzae): 41.5 µg/mL (≈ 95.4 µM) | EC50 (Botrytis cinerea): 14.9 µg/mL (≈ 34.2 µM) | EC50 (Sclerotinia sclerotiorum): 242 µg/mL (≈ 555 µM) | EC50 (Rhizoctonia solani): 31.8 µg/mL (≈ 73.1 µM)

O=C1CCCCCCCCCCC2(CCCN1)N=N/C(=N/c1ccc(Cl)cc1)S2 (stereo not given)
EC50 (Phomopsis asparagi): 102 µg/mL (≈ 234 µM) | EC50 (Pyricularia oryzae): 0.054 µg/mL (≈ 0.124 µM) | EC50 (Botrytis cinerea): 18.7 µg/mL (≈ 42.9 µM) | EC50 (Sclerotinia sclerotiorum): 48.2 µg/mL (≈ 111 µM) | EC50 (Rhizoctonia solani): 39.5 µg/mL (≈ 90.8 µM)

O=C1CCCCCCCCCCC2(CCCN1)N=N/C(=N/c1ccccc1Br)S2 (stereo not given)
EC50 (Phomopsis asparagi): 60.3 µg/mL (≈ 126 µM) | EC50 (Pyricularia oryzae): 57.6 µg/mL (≈ 120 µM) | EC50 (Botrytis cinerea): 19.9 µg/mL (≈ 41.4 µM) | EC50 (Sclerotinia sclerotiorum): 533 µg/mL (≈ 1110 µM) | EC50 (Rhizoctonia solani): 56.1 µg/mL (≈ 117 µM)

COc1ccccc1/N=C1/N=NC2(CCCCCCCCCCC(=O)NCCC2)S1 (stereo not given)
EC50 (Phomopsis asparagi): 517 µg/mL (≈ 1200 µM) | EC50 (Pyricularia oryzae): 398 µg/mL (≈ 924 µM) | EC50 (Botrytis cinerea): 21.8 µg/mL (≈ 50.7 µM) | EC50 (Sclerotinia sclerotiorum): 21.1 µg/mL (≈ 49 µM) | EC50 (Rhizoctonia solani): 37.9 µg/mL (≈ 88 µM)

COc1ccc(/N=C2/N=NC3(CCCCCCCCCCC(=O)NCCC3)S2)cc1 (stereo not given)
EC50 (Phomopsis asparagi): 20.6 µg/mL (≈ 47.7 µM) | EC50 (Pyricularia oryzae): 57.8 µg/mL (≈ 134 µM) | EC50 (Botrytis cinerea): 6.47 µg/mL (≈ 15 µM) | EC50 (Sclerotinia sclerotiorum): 87.2 µg/mL (≈ 203 µM) | EC50 (Rhizoctonia solani): 93 µg/mL (≈ 216 µM)

Cc1cccc(/N=C2/N=NC3(CCCCCCCCCCC(=O)NCCC3)S2)c1C (stereo not given)
EC50 (Phomopsis asparagi): 14.8 µg/mL (≈ 34.6 µM) | EC50 (Pyricularia oryzae): 199 µg/mL (≈ 465 µM) | EC50 (Botrytis cinerea): 22.6 µg/mL (≈ 52.7 µM) | EC50 (Sclerotinia sclerotiorum): 36.5 µg/mL (≈ 85.2 µM) | EC50 (Rhizoctonia solani): 22.4 µg/mL (≈ 52.2 µM)

Cc1ccc(/N=C2/N=NC3(CCCCCCCCCCC(=O)NCCC3)S2)c(C)c1 (stereo not given)
EC50 (Phomopsis asparagi): 5.26 µg/mL (≈ 12.3 µM) | EC50 (Pyricularia oryzae): 30.9 µg/mL (≈ 72.1 µM) | EC50 (Botrytis cinerea): 9.63 µg/mL (≈ 22.5 µM) | EC50 (Sclerotinia sclerotiorum): 55.7 µg/mL (≈ 130 µM) | EC50 (Rhizoctonia solani): 26.8 µg/mL (≈ 62.4 µM)

Cc1ccc(C)c(/N=C2/N=NC3(CCCCCCCCCCC(=O)NCCC3)S2)c1 (stereo not given)
EC50 (Phomopsis asparagi): 16.4 µg/mL (≈ 38.3 µM) | EC50 (Pyricularia oryzae): 86.6 µg/mL (≈ 202 µM) | EC50 (Botrytis cinerea): 18.6 µg/mL (≈ 43.3 µM) | EC50 (Sclerotinia sclerotiorum): 34.3 µg/mL (≈ 80 µM) | EC50 (Rhizoctonia solani): 5.62 µg/mL (≈ 13.1 µM)

O=C1CCCCCCCCCCC2(CCCN1)N=N/C(=N/c1ccc(Cl)c(Cl)c1)S2 (stereo not given)
EC50 (Phomopsis asparagi): 9.02 µg/mL (≈ 19.2 µM) | EC50 (Pyricularia oryzae): 0.72 µg/mL (≈ 1.53 µM) | EC50 (Botrytis cinerea): 34.2 µg/mL (≈ 72.9 µM) | EC50 (Sclerotinia sclerotiorum): 15 µg/mL (≈ 32 µM) | EC50 (Rhizoctonia solani): 36.8 µg/mL (≈ 78.4 µM)

O=C1CCCCCCCCCCC2(CCCN1)N=N/C(=N/c1cc(Cl)ccc1Cl)S2 (stereo not given)
EC50 (Phomopsis asparagi): 222 µg/mL (≈ 472 µM) | EC50 (Pyricularia oryzae): 1.11 µg/mL (≈ 2.36 µM) | EC50 (Botrytis cinerea): 29.6 µg/mL (≈ 63 µM) | EC50 (Sclerotinia sclerotiorum): 109 µg/mL (≈ 233 µM) | EC50 (Rhizoctonia solani): 41.8 µg/mL (≈ 89 µM)

O=C1CCCCCCCCCCC2(CCCN1)N=N/C(=N/c1cccc3ccccc13)S2 (stereo not given)
EC50 (Phomopsis asparagi): 46.1 µg/mL (≈ 102 µM) | EC50 (Pyricularia oryzae): 196 µg/mL (≈ 434 µM) | EC50 (Botrytis cinerea): 15.7 µg/mL (≈ 34.9 µM) | EC50 (Sclerotinia sclerotiorum): 767 µg/mL (≈ 1700 µM) | EC50 (Rhizoctonia solani): 17.8 µg/mL (≈ 39.5 µM)

O=C1CCCCCCCCCCC2(CCCN1)N=N/C(=N/Cc1ccccc1)S2 (stereo not given)
EC50 (Phomopsis asparagi): 21.3 µg/mL (≈ 51.4 µM) | EC50 (Pyricularia oryzae): 117 µg/mL (≈ 282 µM) | EC50 (Botrytis cinerea): 14.4 µg/mL (≈ 34.8 µM) | EC50 (Sclerotinia sclerotiorum): 8.32 µg/mL (≈ 20.1 µM) | EC50 (Rhizoctonia solani): 23.5 µg/mL (≈ 56.7 µM)

O=C1CCCCCCCCCCC2(CCCO1)N=N/C(=N/c1ccccc1Cl)S2 (stereo not given)
EC50 (Phomopsis asparagi): 116 µg/mL (≈ 267 µM) | EC50 (Pyricularia oryzae): 211 µg/mL (≈ 485 µM) | EC50 (Botrytis cinerea): 43.8 µg/mL (≈ 100 µM) | EC50 (Sclerotinia sclerotiorum): 169 µg/mL (≈ 388 µM) | EC50 (Rhizoctonia solani): 159 µg/mL (≈ 365 µM)

O=C1CCCCCCCCCCC2(CCCO1)N=N/C(=N/c1ccc(Cl)cc1)S2 (stereo not given)
EC50 (Phomopsis asparagi): 42.5 µg/mL (≈ 97.4 µM) | EC50 (Pyricularia oryzae): 338 µg/mL (≈ 776 µM) | EC50 (Botrytis cinerea): 49.9 µg/mL (≈ 115 µM) | EC50 (Sclerotinia sclerotiorum): 59.9 µg/mL (≈ 137 µM) | EC50 (Rhizoctonia solani): 126 µg/mL (≈ 290 µM)

O=C1CCCCCCCCCCC2(CCCO1)N=N/C(=N/c1ccccc1Br)S2 (stereo not given)
EC50 (Phomopsis asparagi): 53.5 µg/mL (≈ 111 µM) | EC50 (Pyricularia oryzae): 246 µg/mL (≈ 512 µM) | EC50 (Botrytis cinerea): 36.4 µg/mL (≈ 75.8 µM) | EC50 (Sclerotinia sclerotiorum): 205 µg/mL (≈ 426 µM) | EC50 (Rhizoctonia solani): 208 µg/mL (≈ 432 µM)

O=C1CCCCCCCCCCC2(CCCO1)N=N/C(=N/c1ccc(Br)cc1)S2 (stereo not given)
EC50 (Phomopsis asparagi): 29.2 µg/mL (≈ 60.8 µM) | EC50 (Pyricularia oryzae): 338 µg/mL (≈ 704 µM) | EC50 (Botrytis cinerea): 49.9 µg/mL (≈ 104 µM) | EC50 (Sclerotinia sclerotiorum): 38.3 µg/mL (≈ 79.7 µM) | EC50 (Rhizoctonia solani): 17.1 µg/mL (≈ 35.6 µM)

Cc1ccc(C)c(/N=C2/N=NC3(CCCCCCCCCCC(=O)OCCC3)S2)c1 (stereo not given)
EC50 (Phomopsis asparagi): 208 µg/mL (≈ 485 µM) | EC50 (Pyricularia oryzae): 3120 µg/mL (≈ 7270 µM) | EC50 (Botrytis cinerea): 126 µg/mL (≈ 294 µM) | EC50 (Sclerotinia sclerotiorum): 163 µg/mL (≈ 379 µM) | EC50 (Rhizoctonia solani): 422 µg/mL (≈ 982 µM)

N#Cc1c(Cl)c(Cl)c(Cl)c(C#N)c1Cl [CHLOROTHALONIL]
EC50 (Phomopsis asparagi): 4.35 µg/mL (≈ 16.4 µM) | EC50 (Sclerotinia sclerotiorum): 0.41 µg/mL (≈ 1.54 µM)

CC(C)OC(=O)C(C(=O)OC(C)C)=C1SCCS1 [ISOPROTHIOLANE]
EC50 (Pyricularia oryzae): 7.19 µg/mL (≈ 24.8 µM)

Cc1cc(C)nc(Nc2ccccc2)n1 [PYRIMETHANIL]
EC50 (Botrytis cinerea): 0.14 µg/mL (≈ 0.703 µM)

CN(C)C(=S)SSC(=S)N(C)C [THIRAM]
EC50 (Rhizoctonia solani): 0.9 µg/mL (≈ 3.74 µM)
